Measurements reported in patent publication US20260069539A1, “LIPIDOID COMPOUNDS AND RELATED COMPOSITIONS AND USES” (Poseida Therapeutics, Inc., priority 2023, published 2026).

System: liver cells
Assay: In vivo LNP delivery of fLuciferase mRNA, bioluminescent imaging (BLI) at 4 hr
Design: species or system BALB/C mice
Settings: for Total Flux: 0.5 mg/kg fLuciferase mRNA intravenous, BLI at 4 hr; for Mean Luciferase Flux: 0.5 mg/kg fLuc mRNA i.v., 4 hr
Experimental: Adult female BALB/C mice (n=3/group) were intravenously administered 0.5 mg/kg of 5′-CleanCap—fLuciferase mRNA (TriLink Biotech) formulated with the LNP compositions shown in Table 6. One group of mice was treated with vehicle (PBS, Thermo Fisher Scientific, USA) as a negative control.
(§1) The location and extent of luciferase expression in treated and control mice were determined at 4 hr for mRNA and 48 hr for DNA by bioluminescent imaging (BLI) of anesthetized mice using an IVIS Lumina in vivo imaging system (Perkin Elmer) according to the manufacturer's instructions. Briefly, mice were anesthetized using isoflurane in oxygen, and placed supine on a heated stage. Mice were then administered D-luciferin (Perkin-Elmer #122799) IP, and BLI was performed.
as §1, with “hr” for “hr for mRNA and 48 hr for DNA”
as §1, with “hr” for “hr for mRNA and 48 hr for DNA”
The location and extent of luciferase expression in treated and control mice were determined at 4 hr by bioluminescent imaging (BLI) of anesthetized mice using an IVIS Lumina in vivo imaging system (Perkin Elmer) according to the manufacturer's instructions.
Briefly, mice were anesthetized using isoflurane in oxygen, and placed supine on a heated stage. Mice were then administered D-luciferin (Perkin-Elmer #122799) IP, and BLI was performed.
as §1, with “hr” for “hr for mRNA and 48 hr for DNA”

[1] = Example 104, experiment of Table 64
[2] = Table 13 experiment, LNP with 50 % moles of the compound (DOPC 10/Chol 38.5/PEG-DMG 1.5, Lipid:RNA 80)
[3] = Example 104, experiment of Table 63
[4] = LNP with 40.75 % moles of the compound (DOPC 5.0/Chol 51.75/PEG-DMG 2.5, Lipid:RNA 100)
[5] = LNP with 43.17 % moles of the compound (DOPC 11.96/Chol 43.17/PEG-DMG 1.7, Lipid:RNA 100)
[6] = LNP with 54.0 % moles of the compound (DOPC 10.0/Chol 35.0/PEG-DMG 1.0, Lipid:RNA 100)
[7] = Example 104, experiment of Table 65

## CCCCC[C@H]1CC[C@H](C(=O)OCC(COC(=O)CCCCCN(CCCCCC(=O)OCC(COC(=O)[C@H]2CC[C@H](CCCCC)CC2)COC(=O)[C@H]2CC[C@H](CCCCC)CC2)C[C@H](O)CO)COC(=O)[C@H]2CC[C@H](CCCCC)CC2)CC1 [COMPOUND NO. 61]
[1]
  Total Flux: 1.04E+11 p/s

## CCCCCCCCC(CCCCCC)C(=O)O[C@H]1CC[C@H](OC(=O)CCCCCN(CCO)CCCCCC(=O)O[C@H]2CC[C@H](OC(=O)C(CCCCCC)CCCCCCCC)CC2)CC1 (stereo partly drawn) [COMPOUND NO. 27]
[2]
  Mean Luciferase Flux: 1.10E+10 p/s

## CCCCC[C@H]1CC[C@H](C(=O)OCC(COC(=O)CCCCCN(CCCCCC(=O)OCC(COC(=O)[C@H]2CC[C@H](CCCCC)CC2)COC(=O)[C@H]2CC[C@H](CCCCC)CC2)[C@H]2CC[C@H](CO)CC2)COC(=O)[C@H]2CC[C@H](CCCCC)CC2)CC1 [COMPOUND NO. 54]
[3]
  Total Flux: 1.30E+11 p/s

## CN(CCCN(CCC(=O)OCCOC(=O)CCCCC1CCCCC1)CCC(=O)OCCOC(=O)CCCCC1CCCCC1)CCCN(CCC(=O)OCCOC(=O)CCCCC1CCCCC1)CCC(=O)OCCOC(=O)CCCCC1CCCCC1 [COMPOUND NO. 5]
[4]
  Mean Luciferase Flux: 2.84E+11 p/s
[5]
  Mean Luciferase Flux: 7.16E+10 p/s
[6]
  Mean Luciferase Flux: 7.25E+08 p/s

## CCCCCCCCC(CCCCCCCC)OC(=O)[C@H]1CC[C@H](C(=O)OCCCCCN(CCCO)CCCCCOC(=O)[C@H]2CC[C@H](C(=O)OC(CCCCCCCC)CCCCCCCC)CC2)CC1 [COMPOUND NO. 31]
[2]
  Mean Luciferase Flux: 1.00E+10 p/s

## CCCCC[C@H]1CC[C@H](C(=O)OCC(COC(=O)CCCCCN(CCCCCC(=O)OCC(COC(=O)[C@H]2CC[C@H](CCCCC)CC2)COC(=O)[C@H]2CC[C@H](CCCCC)CC2)CC(C)O)COC(=O)[C@H]2CC[C@H](CCCCC)CC2)CC1 (mixture of isomers) [COMPOUND NO. 55]
[3]
  Total Flux: 7.89E+10 p/s

## CN(CCCN(CCC(=O)OCC1CCC(CCCCC2CCCCC2)CC1)CCC(=O)OCC1CCC(CCCCC2CCCCC2)CC1)CCCN(CCC(=O)OCC1CCC(CCCCC2CCCCC2)CC1)CCC(=O)OCC1CCC(CCCCC2CCCCC2)CC1 (stereo not drawn) [COMPOUND NO. 2]
[4]
  Mean Luciferase Flux: 2.53E+07 p/s

## CC(C)CCCC(=O)OCC1CCC(COC(=O)CCN(CCCN(C)CCCN(CCC(=O)OCC2CCC(COC(=O)CCCC(C)C)CC2)CCC(=O)OCC2CCC(COC(=O)CCCC(C)C)CC2)CCC(=O)OCC2CCC(COC(=O)CCCC(C)C)CC2)CC1 (stereo not drawn) [COMPOUND NO. 7]
[4]
  Mean Luciferase Flux: 6.41E+10 p/s
[5]
  Mean Luciferase Flux: 1.84E+11 p/s
[6]
  Mean Luciferase Flux: 1.55E+11 p/s

## CCCCC[C@H]1CC[C@H](C(=O)OCC(COC(=O)CCCCCN(CCCCCCO)CCCCCC(=O)OCC(COC(=O)[C@H]2CC[C@H](CCCCC)CC2)COC(=O)[C@H]2CC[C@H](CCCCC)CC2)COC(=O)[C@H]2CC[C@H](CCCCC)CC2)CC1 [COMPOUND NO. 52]
[3]
  Total Flux: 1.81E+11 p/s

## CCCCC[C@H]1CC[C@H](C(=O)OCC(COC(=O)CCCCCN(CCCCCC(=O)OCC(COC(=O)[C@H]2CC[C@H](CCCCC)CC2)COC(=O)[C@H]2CC[C@H](CCCCC)CC2)C(CO)CO)COC(=O)[C@H]2CC[C@H](CCCCC)CC2)CC1 [COMPOUND NO. 62]
[7]
  Total Flux: 2.20E+11 p/s

## CCCCC[C@H]1CC[C@H](C(=O)OCC(COC(=O)CCCCN(CCO)CCCCC(=O)OCC(COC(=O)[C@H]2CC[C@H](CCCCC)CC2)COC(=O)[C@H]2CC[C@H](CCCCC)CC2)COC(=O)[C@H]2CC[C@H](CCCCC)CC2)CC1 [COMPOUND NO. 71]
[7]
  Total Flux: 1.78E+11 p/s

## CCCCC[C@H]1CC[C@H](C(=O)OCC(COC(=O)CCCCCN(CCC)CCCCCC(=O)OCC(COC(=O)[C@H]2CC[C@H](CCCCC)CC2)COC(=O)[C@H]2CC[C@H](CCCCC)CC2)COC(=O)[C@H]2CC[C@H](CCCCC)CC2)CC1 [COMPOUND NO. 58]
[1]
  Total Flux: 4.38E+09 p/s

## CCCCC(CC)CCCCOC(=O)C(CCCN(CCCO)CCCC(C(=O)OCCCCC1CCCCC1)C(=O)OCCCCC1CCCCC1)C(=O)OCCCCC1CCCCC1 (stereo not drawn) [COMPOUND NO. 44]
[3]
  Total Flux: 5.73E+08 p/s

## CCCCC[C@H]1CC[C@H](C(=O)OCCCCCCCN(CCO)CCCCCCCOC(=O)[C@H]2CC[C@H](CCCCC)CC2)CC1 [COMPOUND NO. 24]
[2]
  Mean Luciferase Flux: 3.46E+06 p/s

## CCCCC[C@H]1CC[C@H](C(=O)OCC(COC(=O)CCCCCN(CCCCCC(=O)OCC(COC(=O)[C@H]2CC[C@H](CCCCC)CC2)COC(=O)[C@H]2CC[C@H](CCCCC)CC2)C[C@@H](O)CO)COC(=O)[C@H]2CC[C@H](CCCCC)CC2)CC1 [COMPOUND NO. 60]
[1]
  Total Flux: 6.51E+10 p/s

## CCCCC[C@H]1CC[C@H](C(=O)OCC(COC(=O)CCCCCN(CCCCCC(=O)OCC(COC(=O)[C@H]2CC[C@H](CCCCC)CC2)COC(=O)[C@H]2CC[C@H](CCCCC)CC2)CC(O)CO)COC(=O)[C@H]2CC[C@H](CCCCC)CC2)CC1 (mixture of isomers) [COMPOUND NO. 59]
[1]
  Total Flux: 1.06E+11 p/s

## CCCCCCCCC(CCCCCCCC)OC(=O)[C@H]1CC[C@H](C(=O)OCCCCCN(CCO)CCCCCOC(=O)[C@H]2CC[C@H](C(=O)OC(CCCCCCCC)CCCCCCCC)CC2)CC1 [COMPOUND NO. 30]
[2]
  Mean Luciferase Flux: 2.54E+10 p/s

## O=C(CCCCCN(CCCCO)CCCCCC(=O)OCC(COC(=O)CCCCC1CCCCC1)COC(=O)CCCCC1CCCCC1)OCC(COC(=O)CCCCC1CCCCC1)COC(=O)CCCCC1CCCCC1 [COMPOUND NO. 67]
[7]
  Total Flux: 3.79E+11 p/s

## CCCCC[C@H]1CC[C@H](C(=O)OCC(COC(=O)CCCCCN(CCCCCC(=O)OCC(COC(=O)[C@H]2CC[C@H](CCCCC)CC2)COC(=O)[C@H]2CC[C@H](CCCCC)CC2)C[C@H](C)O)COC(=O)[C@H]2CC[C@H](CCCCC)CC2)CC1 [COMPOUND NO. 56]
[3]
  Total Flux: 9.88E+10 p/s

## O=C(CCCCCN(CCO)CCCCCC(=O)OCC(COC(=O)CCCCC1CCCCC1)COC(=O)CCCCC1CCCCC1)OCC(COC(=O)CCCCC1CCCCC1)COC(=O)CCCCC1CCCCC1 [COMPOUND NO. 65]
[3]
  Total Flux: 1.30E+11 p/s

## CCCCCCCCC(CCCCCC)C(=O)OC1CCC(OC(=O)CCCCCN(CCO)CCCCCCCOC(=O)C2CCC(CCCCC)CC2)CC1 (stereo not drawn) [COMPOUND NO. 33]
[2]
  Mean Luciferase Flux: 1.73E+10 p/s

## O=C(OCCCCC1CCCCC1)C(CCCCCCN(CCCO)CCCCCCC(C(=O)OCCCCC1CCCCC1)C(=O)OCCCCC1CCCCC1)C(=O)OCCCCC1CCCCC1 [COMPOUND NO. 45]
[3]
  Total Flux: 2.42E+10 p/s

## CCCCCC(=O)OCC1CCC(COC(=O)CCN(CCCN(C)CCCN(CCC(=O)OCC2CCC(COC(=O)CCCCC)CC2)CCC(=O)OCC2CCC(COC(=O)CCCCC)CC2)CCC(=O)OCC2CCC(COC(=O)CCCCC)CC2)CC1 (stereo not drawn) [COMPOUND NO. 8]
[4]
  Mean Luciferase Flux: 1.27E+11 p/s
[5]
  Mean Luciferase Flux: 3.31E+11 p/s
[6]
  Mean Luciferase Flux: 2.33E+11 p/s

## CCCCC[C@H]1CC[C@H](C(=O)OCC(COC(=O)CCCCCN(CCCCCO)CCCCCC(=O)OCC(COC(=O)[C@H]2CC[C@H](CCCCC)CC2)COC(=O)[C@H]2CC[C@H](CCCCC)CC2)COC(=O)[C@H]2CC[C@H](CCCCC)CC2)CC1 [COMPOUND NO. 51]
[3]
  Total Flux: 2.65E+10 p/s

## O=C(CCCCCN(CCCO)CCCCCC(=O)OCC(COC(=O)CCCCC1CCCCC1)COC(=O)CCCCC1CCCCC1)OCC(COC(=O)CCCCC1CCCCC1)COC(=O)CCCCC1CCCCC1 [COMPOUND NO. 66]
[3]
  Total Flux: 3.25E+11 p/s

## CCCCC[C@H]1CC[C@H](C(=O)OCCCCCN(CCCO)CCCOC(=O)[C@H]2CC[C@H](CCCCC)CC2)CC1 [COMPOUND NO. 22]
[2]
  Mean Luciferase Flux: 2.31E+07 p/s

## CCCCC[C@H]1CC[C@H](C(=O)OCCCCCN(CCO)CCCOC(=O)[C@H]2CC[C@H](CCCCC)CC2)CC1 [COMPOUND NO. 21]
[2]
  Mean Luciferase Flux: 1.27E+08 p/s

## CCCCC[C@H]1CC[C@H](C(=O)OCC(COC(=O)CCCCN(CCCCO)CCCCC(=O)OCC(COC(=O)[C@H]2CC[C@H](CCCCC)CC2)COC(=O)[C@H]2CC[C@H](CCCCC)CC2)COC(=O)[C@H]2CC[C@H](CCCCC)CC2)CC1 [COMPOUND NO. 73]
[7]
  Total Flux: 1.61E+11 p/s

## CCCCC[C@H]1CC[C@H](C(=O)CCCCN(CCCOC(=O)[C@H]2CC[C@H](CCCCC)CC2)CCCN(C)CCCN(CCCOC(=O)[C@H]2CC[C@H](CCCCC)CC2)CCCOC(=O)[C@H]2CC[C@H](CCCCC)CC2)CC1 [COMPOUND NO. 35]
Table 13 experiment, first line of compound 35, printed 50 % moles (Table 12: 40.75 % moles, Lipid:RNA 80)
  Mean Luciferase Flux: 2.35E+09 p/s
Table 13 experiment, second line of compound 35, printed 50 % moles (Table 12: 40.75 % moles, Lipid:RNA 40)
  Mean Luciferase Flux: 3.13E+09 p/s
